Data reported in patent US10770169B2, “Method of providing a treatment to a subject based on a dynamic pathway map” (THE REGENTS OF THE UNIVERSITY OF CALIFORNIA, priority 2010, dated 2020).

Tested on: panel of 55 breast cancer cell lines
Assay: Cell growth inhibition assay (Cell Titer Glo, 72 h, 9 doses; GI50, TGI, LC50)
Assay type: cell-based, human

SMILES: Oc1cc(-c2nc(-c3ccccc3)[nH]c2-c2ccncc2)ccc1Cl [L-779450]
- GI50 (BT474 cell line, censored GI50 values, value is the negative log10 of mol/L): 4.73
- GI50 (BT483 cell line, censored GI50 values, value is the negative log10 of mol/L): 4.84
- GI50 (HCC38 cell line, censored GI50 values, value is the negative log10 of mol/L): 4.77
- GI50 (HCC1187 cell line, censored GI50 values, value is the negative log10 of mol/L): 5.07
- GI50 (HCC1395 cell line, censored GI50 values, value is the negative log10 of mol/L): 4.54
- GI50 (HCC1419 cell line, censored GI50 values, value is the negative log10 of mol/L): 4.78
- GI50 (HCC1428 cell line, censored GI50 values, value is the negative log10 of mol/L): 4.80
- GI50 (HCC1937 cell line, censored GI50 values, value is the negative log10 of mol/L): 4.84
- GI50 (MDAMB134VI cell line, censored GI50 values, value is the negative log10 of mol/L): 4.60
- GI50 (MDAMB175VII cell line, censored GI50 values, value is the negative log10 of mol/L): 5.05
- GI50 (MDAMB361 cell line, censored GI50 values, value is the negative log10 of mol/L): 5.04
- GI50 (MDAMB436 cell line, censored GI50 values, value is the negative log10 of mol/L): 5.66
- GI50 (MDAMB468 cell line, censored GI50 values, value is the negative log10 of mol/L): 4.90
- GI50 (SKBR3 cell line, censored GI50 values, value is the negative log10 of mol/L): 4.66
- GI50 (SUM52PE cell line, censored GI50 values, value is the negative log10 of mol/L): 5.13
- GI50 (SUM149PT cell line, censored GI50 values, value is the negative log10 of mol/L): 5.13
- GI50 (SUM159PT cell line, censored GI50 values, value is the negative log10 of mol/L): 4.70
- GI50 (UACC812 cell line, censored GI50 values, value is the negative log10 of mol/L): 4.97
- GI50 (ZR75B cell line, censored GI50 values, value is the negative log10 of mol/L): 4.51
- GI50 (cell line AU565, value is the negative log10 of mol/L): 4.48
- GI50 (cell line BT20, value is the negative log10 of mol/L): 4.44
- GI50 (cell line BT474, value is the negative log10 of mol/L): 4.73
- GI50 (cell line BT483, value is the negative log10 of mol/L): 4.84
- GI50 (cell line CAMA1, value is the negative log10 of mol/L): 4.44
- GI50 (cell line HCC38, value is the negative log10 of mol/L): 4.77
- GI50 (cell line HCC70, value is the negative log10 of mol/L): 4.50
- GI50 (cell line HCC1143, value is the negative log10 of mol/L): 4.39
- GI50 (cell line HCC1187, value is the negative log10 of mol/L): 5.07
- GI50 (cell line HCC1395, value is the negative log10 of mol/L): 4.54
- GI50 (cell line HCC1419, value is the negative log10 of mol/L): 4.78
- GI50 (cell line HCC1428, value is the negative log10 of mol/L): 4.80
- GI50 (cell line HCC1500, value is the negative log10 of mol/L): 4.48
- GI50 (cell line HCC1937, value is the negative log10 of mol/L): 4.84
- GI50 (cell line HCC1954, value is the negative log10 of mol/L): 4.48
- GI50 (cell line HCC2185, value is the negative log10 of mol/L): 4.42
- GI50 (cell line HCC3153, value is the negative log10 of mol/L): 4.48
- GI50 (cell line MCF7, value is the negative log10 of mol/L): 4.48
- GI50 (cell line MDAMB134V, value is the negative log10 of mol/L): 4.60
- GI50 (cell line MDAMB175V, value is the negative log10 of mol/L): 5.05
- GI50 (cell line MDAMB231, value is the negative log10 of mol/L): 4.49
- GI50 (cell line MDAMB361, value is the negative log10 of mol/L): 5.04
- GI50 (cell line MDAMB436, value is the negative log10 of mol/L): 5.66
- GI50 (cell line MDAMB453, value is the negative log10 of mol/L): 4.48
- GI50 (cell line MDAMB468, value is the negative log10 of mol/L): 4.90
- GI50 (cell line SKBR3, value is the negative log10 of mol/L): 4.66
- GI50 (cell line SUM52PE, value is the negative log10 of mol/L): 5.13
- GI50 (cell line SUM149PT, value is the negative log10 of mol/L): 5.13
- GI50 (cell line SUM159PT, value is the negative log10 of mol/L): 4.70
- GI50 (cell line SUM1315MO, value is the negative log10 of mol/L): 4.62
- GI50 (cell line T47D, value is the negative log10 of mol/L): 4.48
- GI50 (cell line UACC812, value is the negative log10 of mol/L): 4.97
- GI50 (cell line ZR75B, value is the negative log10 of mol/L): 4.51
- GI50 (cell line ZR751, value is the negative log10 of mol/L): 4.53

SMILES: C[C@]12O[C@H](C[C@]1(O)CO)n1c3ccccc3c3c4c(c5c6ccccc6n2c5c31)CNC4=O [Lestaurtinib]
- GI50 (Homo sapiens, 600MPE cell line, censored GI50 values): 1700 nM
- GI50 (Homo sapiens, AU565, AU565 cell line, censored GI50 values): 851 nM
- GI50 (Homo sapiens, AU565, cell line AU565): 851 nM
- GI50 (Homo sapiens, BT-20, BT20 cell line, censored GI50 values): 3240 nM
- GI50 (Homo sapiens, BT-20, cell line BT20): 3240 nM
- GI50 (Homo sapiens, BT-474, BT474 cell line, censored GI50 values): 245 nM
- GI50 (Homo sapiens, BT-474, cell line BT474): 245 nM
- GI50 (Homo sapiens, BT-483, BT483 cell line, censored GI50 values): 741 nM
- GI50 (Homo sapiens, BT-483, cell line BT483): 741 nM
- GI50 (Homo sapiens, CAMA-1, CAMA1 cell line, censored GI50 values): 2240 nM
- GI50 (Homo sapiens, CAMA-1, cell line CAMA1): 2240 nM
- GI50 (Homo sapiens, HCC38, cell line HCC38): 61.7 nM
- GI50 (Homo sapiens, HCC70, cell line HCC70): 182 nM
- GI50 (Homo sapiens, HCC1143, HCC1143 cell line, censored GI50 values): 331 nM
- GI50 (Homo sapiens, HCC1143, cell line HCC1143): 331 nM
- GI50 (Homo sapiens, HCC1187, HCC1187 cell line, censored GI50 values): 832 nM
- GI50 (Homo sapiens, HCC1187, cell line HCC1187): 832 nM
- GI50 (Homo sapiens, HCC1419, HCC1419 cell line, censored GI50 values): 1150 nM
- GI50 (Homo sapiens, HCC1419, cell line HCC1419): 1150 nM
- GI50 (Homo sapiens, HCC1428, HCC1428 cell line, censored GI50 values): 537 nM
- GI50 (Homo sapiens, HCC1428, cell line HCC1428): 537 nM
- GI50 (Homo sapiens, HCC1500, HCC1500 cell line, censored GI50 values): 158 nM
- GI50 (Homo sapiens, HCC1500, cell line HCC1500): 158 nM
- GI50 (Homo sapiens, HCC1806, HCC1806 cell line, censored GI50 values): 162 nM
- GI50 (Homo sapiens, HCC1806, cell line HCC1806): 162 nM
- GI50 (Homo sapiens, HCC1937, HCC1937 cell line, censored GI50 values): 617 nM
- GI50 (Homo sapiens, HCC1937, cell line HCC1937): 617 nM
- GI50 (Homo sapiens, HCC1954, HCC1954 cell line, censored GI50 values): 4900 nM
- GI50 (Homo sapiens, HCC1954, cell line HCC1954): 4900 nM
- GI50 (Homo sapiens, MCF7, cell line MCF7): 1410 nM
- GI50 (Homo sapiens, MDA-MB-361, cell line MDAMB361): 525 nM
- GI50 (Homo sapiens, MDA-MB-436, cell line MDAMB436): 1380 nM
- GI50 (Homo sapiens, MDA-MB-453, cell line MDAMB453): 661 nM
- GI50 (Homo sapiens, MDA-MB-468, cell line MDAMB468): 407 nM
- GI50 (Homo sapiens, SK-BR-3, cell line SKBR3): 1020 nM
- GI50 (Homo sapiens, SUM52PE, cell line SUM52PE): 138 nM
- GI50 (Homo sapiens, SUM149PT, cell line SUM149PT): 91.2 nM
- GI50 (Homo sapiens, SUM185PE, cell line SUM185PE): 63.1 nM
- GI50 (Homo sapiens, SUM225CWN, cell line SUM225CWN): 1000 nM
- GI50 (Homo sapiens, SUM-159-PT, cell line SUM159PT): 288 nM
- GI50 (Homo sapiens, T47D, cell line T47D): 5620 nM
- GI50 (Homo sapiens, UACC-812, cell line UACC812): 1050 nM
- GI50 (Homo sapiens, ZR-75-1, cell line ZR751): 1780 nM
- GI50 (Homo sapiens, ZR-75B, cell line ZR75B): 457 nM
- GI50 (Homo sapiens, cell line 600MPE): 1700 nM
- GI50 (Homo sapiens, cell line HCC2185): 3240 nM
- GI50 (Homo sapiens, cell line HCC3153): 7760 nM
- GI50 (Homo sapiens, cell line MDAMB134V): 363 nM
- GI50 (Homo sapiens, cell line MDAMB175V): 813 nM
- GI50 (Homo sapiens, cell line SUM1315MO): 37.2 nM
